Test results as given in patent US20170130196A1, “METHOD FOR CULTURING AND PATTERNING CELLS” (President and Fellows of Harvard College, priority 2015, published 2017).

System: GFP-expressing A549 human lung cancer cells
Assay: Response of cells-in-string to toxins/drugs (crossed drug-laden string, confocal imaging)
Format: cell-based
Procedure: Scale bar represents 150 μm.
Cells in string were evaluated for the effect of a toxic drug on cancer cells. Green fluorescent protein (GFP) expressing A549 human lung cancer cells were grown in cotton string in Matrigel for two days. […] Doxorubicin was selected due to its potency in cancer treatment. These two strings were then crossed and sandwiched between two layers of filter paper that were impregnated with Matrigel. This assembly was cultured for two days and the cellular patterns that were transferred to the paper were imaged. […] A second experiment included the doxorubicin-laden string (FIG. 7B).

SMILES: COc1cccc2c1C(=O)c1c(O)c3c(c(O)c1C2=O)C[C@@](O)(C(=O)CO)C[C@@H]3O[C@H]1C[C@H](N)[C@H](O)[C@H](C)O1 [Doxorubicin]
- cell death of GFP-A549 cells where exposed to drug-laden top string (1 μM Doxorubicin embedded in top string, cells grown in silk string for two days, top string removed following 24 h culture (FIG. 7B)): died in the area where they were exposed to the top string
- cell death of GFP-A549 cells where contacted by drug-laden top string (1 mM Doxorubicin encapsulated in string, cells in cotton string in Matrigel, crossed, sandwiched between Matrigel-impregnated filter paper, cultured two days): died on the region where they contacted the top string containing doxorubicin
